Patent publication US9963498B2, “Peptides that inhibit syndecan-1 activation of VLA-4 and IGF-1R” (Wisconsin Alumni Research Foundation, priority 2016, dated 2018)
“Also recorded” adds a separate entry of the source. Where no end group is shown, it is not given here.

Legend:
[1] = SSTN stability assay in mouse serum; type: in vitro ADME; conditions: for stability in serum (in words): mouse (rodent) serum, up to 72 hr; for stability in serum (in words) / stability (activity retained): 37° C.; for stability (activity retained): mouse serum, 3 days (SSTNIGF1R: more than 3 days)
Experimental: FIG. 16. SSTNI/V IS STABLE IN RODENT SERUM, EQUIVALENT TO SSTNIGF1R AND SSTNVLA4. SSTNI/V, SSTNIGF1R and SSTNVLA4 were incubated at 37° C. for up to 72 hr in mouse serum. Note that rodent serum is known to contain substantial proteolytic activity against peptides. A GRGDSP integrin-inhibitory peptide was used as control, tested against endothelial cell adhesion to fibronectin. Either myeloma cell viability, or endothelial cell adhesion to IIICS fragment was used to test the activity of the SSTN peptides. SSTN peptides were used at up to 30 μM, and the GRGDSP peptide was used up to 1 mM. Activity observed in the assays was plotted against a standard curve to determine relative activity.
(§1) For stability assays, SSTNIGF1R, SSTNVLA4, SSTNI/V and GRGDSP peptide (SEQ ID NO:31; EMD Millipore) were incubated in human plasma (obtained from the UW-Madison Hospital Blood Bank) for 0, 8, 24 or 72 hr, then tested in the endothelial cell adhesion assay or cell viability assay and compared to a standard curve generated using fresh peptide.

[2] = test system: HaCaT keratinocytes and MCF10A breast epithelial cells; conditions: 3, 10 or 30 μM, 3 days; Beauvais et al. 2016; cited from earlier work
[3] = test system: angiogenesis in the mouse cornea; conditions: induced by FGF in the mouse cornea; Beauvais et al., 2009; cited from earlier work
[4] = test system: Apoptosis signal regulating kinase-1 (ASK1); conditions: CAG or MM.1R myeloma cells, 6 hr, 10 μM; modified from Beauvais et al. 2016; cited from earlier work
[5] = Beauvais et al., 2016; cited from earlier work
[6] = test system: M21 murine melanoma cells; assay: Melanoma cell invasion through filters coated with fibronectin; type: cell-based, mouse; conditions: 16 hr, 30 μM peptide
Experimental: FIG. 17. […] M21 murine melanoma cells are allowed to migrate for 16 hr through filters coated with fibronectin. The relative roles of the αvβ3 integrin and the α4β1 integrin (VLA-4) are determined using blocking antibodies to αv and α4 integrin subunits, or both antibodies combined.

[7] = Beauvais et al., 2016; plasma species not printed at the place; cited from earlier work
[8] = test system: B78 murine melanoma cells; assay: Melanoma cell survival (trypan blue exclusion); type: cell-based, mouse; conditions: up to 72 hr, 30 μM
Experimental: FIG. 18. SSTNI/V BLOCKS SURVIVAL OF MOUSE MELANOMA CELLS. B78 murine melanoma cells grown in serum-containing DMEM are incubated for up to 72 hr in 30 μM SSTNVLA4, SSTNIGF1R or SSTNI/V, then viable cells were quantified by trypan blue exclusion.
All cells were cultured at 37° C. and 92.5% air/7.5% CO2. The derivation and culture of CAG myeloma and HMEC-1 cells are described previously (Ades et al. 1992, Rapraeger et al. 2013). B78 murine melanoma cells were kindly provided by Dr. Sondel, Department of Pediatrics, University of Wisconsin-Madison. All cells are routinely screened for mycoplasma contamination. For viability studies, 2.5×10^4 myeloma cells/well or 10^4 B78 murine melanoma cells were plated in 96-well plates in complete DMEM containing 10% calf serum in the presence or absence of SSTN peptides for 24, 48 or 72 hrs. Numbers of viable cells were then determined by addition of CellTiter-GLO reagent to the culture medium as described by the manufacturer and viable cells determined by staining with 0.4% trypan blue and counting cells that exclude (viable) or take up (dead) the stain.

[9] = SSTN stability in bovine serum; type: in vitro ADME; conditions: more than 3 days at 37° C.
[10] = test system: UM-SCC47, SCC25, MDA-MB-468, MDA-MB-231, MCF-7 and SKBr3 carcinoma cells; conditions: 3, 10 or 30 μM, 3 days; Beauvais et al. 2016; cited from earlier work
[11] = SSTN stability assay in human plasma; type: in vitro ADME; conditions: more than 3 days at 37° C.
Experimental: as §1

[12] = test system: CAG myeloma tumor xenografts; conditions: nude mice, Alzet pumps 0.365 mg/kg/day, 4 weeks; modified from Beauvais et al. 2016; cited from earlier work
[13] = test system: HMEC-1 cells; conditions: 20 ng/ml VEGF, 30 μM, 24 h; modified from Jung et al. 2016; cited from earlier work
[14] = test system: myeloma, melanoma, microvascular endothelial and T-lymphoma cells; assay: Migration through filters coated with VCAM-1; type: cell-based; conditions: 16 hr, 30 μM
Experimental: (§2) FIGS. 11A, 11B, 11C, and 11D. […] 11A. CAG myeloma, mouse M21 melanoma, human microvascular endothelial and Jurkat T-lymphoma cells are plated on VCAM-1 for 2 hr in the presence or absence of 30 μM SSTNVLA4 or VLA-4 blocking antibody as a test of specificity. Numbers of adherent cells are quantified and expressed as a percentage of control, untreated cells in FIG. 11B. 11C. Cells are plated on top of filters coated with VCAM-1 allowed to migrate for 16 hr in the presence or absence of 30 μM SSTNVLA4. Cells accumulating on the bottom of the filters are visualized by staining. 11D. Expression level of Sdc1 and VLA-4 are shown by Western blot staining of mouse natural killer (NK) and T-cells harvested from mouse spleens.

[15] = test system: CAG myeloma, mouse M21 melanoma, human microvascular endothelial and Jurkat T-lymphoma cells; assay: Cell adhesion to VCAM-1; type: cell-based; conditions: 2 hr, 30 μM
Experimental: as §2

[16] = test system: HMEC-1; conditions: 16 h, 30 μM; modified from Jung et al. 2016; cited from earlier work
[17] = test system: CAG myeloma cells; conditions: CAG myeloma cells plated on FN for 2.5 hr; 0, 0.3, 3, or 30 μM; modified from Jung et al. 2016; cited from earlier work
[18] = test system: VEGFR2; conditions: 2 h on IIICS, 10 μM; modified from Jung et al. 2016; cited from earlier work

Question: For `N=C(N)NCCC[C@H](NC(=O)CN)C(=O)NCC(=O)N[C@@H](CC(=O)O)C(=O)N[C@@H](CO)C(=O)N1CCC[C@H]1C(=O)O` [GRGDSP], which “time to complete inactivation” value ([1]; control peptide, tested by endothelial cell adhesion to fibronectin) is on record?
Answer: The value was ≤ 8 h.

Question: And the “stability in serum (in words)” value [1]?
Answer: Its value is “destroyed within a matter of a few hr”.

Question: Which results are given for “LPAGEGPKEGEAVVLPEVEPGLTAREQDFTFETSGENTA [SSTNI/V]”?
Answer: stability in serum (in words) [1]: highly stable; also recorded: same remarkable stability; stability (activity retained) [1]: 100%

Question: With “SSTNIGF1R: peptide mimetic of the Sdc1 docking site (aa93-120 in human Sdc1) that captures IGF-1R and the αvβ3 or αvβ5 integrin” as the compound, how does the “growth of normal epithelial cells” value [2] read?
Answer: Its value is “not affected and NOT”.

Question: And the “abnormal angiogenesis in vivo” value [3]?
Answer: Its value is “block abnormal angiogenesis”.

Question: And the ASK-1 activation [4]?
Answer: Its ASK-1 activation is “ACTIVATES”.

Question: And the half-life in vivo [5]?
Answer: The half-life in vivo was “ca. 27 hr”.

Question: And the “block of melanoma cell invasion” value [6]?
Answer: Its value is “partially block; also recorded: partial block”.

Question: What about the “stability when incubated in plasma” value [7] of the same compound?
Answer: The value was “remarkable stability”.

Question: And the melanoma cell survival [8]?
Answer: Its melanoma cell survival is “killed; also recorded: blocked”.

Question: And the “stability (activity retained)” value [9]?
Answer: The value was 100%.

Question: And the “growth of carcinoma cells” value [10]?
Answer: The value was “BLOCKS THE GROWTH”.

Question: What about the “stability (activity retained)” value [11] of the same compound?
Answer: The value was 100%.

Question: And the “growth of myeloma tumors” value [12]?
Answer: Its value is “INHIBITS GROWTH”.

Question: And the “stability (activity retained)” value [1]?
Answer: Its value is 100%.

Question: What does the source list for “SSTNVLA4: peptide mimetic of the VLA-4 binding site of Sdc1, comprised of amino acids 210-233 (or 210-221) (DFTFETSGENTAVVAVEPDRRNQS)”?
Answer: tube formation [13]: prevents the angiogenic phenotype; also recorded: BLOCKS; block of melanoma cell invasion [6]: partially block; also recorded: partial block; invasion of cells through VCAM-1-coated filters [14]: BLOCKS THE INVASION; invasion of cells through VCAM-1-coated filters ([14]; listed as SSTNVLA-4): prevented; binding of cells to the VLA-4 ligand VCAM-1 [15]: prevented; melanoma cell survival [8]: only a minimal effect; also recorded: only minimally; endothelial cell invasion [16]: BLOCKS; VLA-4-mediated adhesion of myeloma cells [17]: displaced from VLA-4 ligands; also recorded: BLOCKS; stability (activity retained) [1]: 100%; VEGFR2 activation [18]: BLOCKS
